In PMC2374555, “Inhibition of aromatase activity and expression in MCF-7 cells by the chemopreventive retinoid N -(4-hydroxy-phenyl)-retinamide” (British Journal of Cancer, 2000):

Molecular target: T1, aromatase (Homo sapiens, UniProt P11511)
T1 construct: gene CYP19A1; microsomes isolated from JEG-3 human choriocarcinoma cells
T1 sequence (P11511 1-503): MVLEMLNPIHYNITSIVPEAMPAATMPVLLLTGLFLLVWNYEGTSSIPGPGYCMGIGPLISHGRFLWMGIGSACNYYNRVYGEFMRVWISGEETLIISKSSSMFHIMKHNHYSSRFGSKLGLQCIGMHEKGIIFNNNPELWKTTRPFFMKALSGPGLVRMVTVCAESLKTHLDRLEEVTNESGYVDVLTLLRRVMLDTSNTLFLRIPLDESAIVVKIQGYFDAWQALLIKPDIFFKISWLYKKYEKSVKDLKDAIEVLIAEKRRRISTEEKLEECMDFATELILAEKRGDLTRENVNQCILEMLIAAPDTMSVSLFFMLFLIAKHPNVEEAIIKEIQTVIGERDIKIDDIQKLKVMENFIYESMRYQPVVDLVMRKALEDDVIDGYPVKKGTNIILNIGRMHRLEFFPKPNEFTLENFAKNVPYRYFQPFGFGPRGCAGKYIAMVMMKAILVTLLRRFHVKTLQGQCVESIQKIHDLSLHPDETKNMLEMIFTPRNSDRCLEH
Assay: 3H2O release aromatase assay in JEG-3 microsomes, Lineweaver-Burk kinetics; also intact MCF-7 cells
Format: biochemical

IC50: 1 µM
SMILES: CC1=C(/C=C/C(C)=C/C=C/C(C)=C/C(=O)Nc2ccc(O)cc2)C(C)(C)CCC1 [4-HPR, N-(4-hydroxyphenyl)-retinamide]
